{
  "source": "paper PMC12736120",
  "about": "“First-in-Human Phase I Clinical Trial of SLC-391, a Novel and Selective AXL Inhibitor, in Patients with Advanced Solid Tumours” (Pharmaceuticals, 2025)",
  "origin": "cited, not measured here",
  "system": "AXL",
  "conditions": "stated in the Introduction, no reference given; read-out: IC50 against AXL; cited from earlier work",
  "data": [
    {"smiles": "Nc1ncc(-c2cnn(C3CCNCC3)c2)cc1-c1nnc(CC2CC2)o1", "note": "[SLC-391, 3-(5-[cyclopropylmethyl]-1,3,4-oxadiazol-2-yl)-5-(1-[piperidin-4-yl]-1H-pyrazol-4-yl)-pyridin-2-amine]", "values": [
      {"measurement": "IC50", "value": 9.6, "unit": "nM"}
    ]}
  ]
}
